Source: patent US9884818B2, “Sulphamoylpyrrolamide derivatives and the use thereof as medicaments for the treatment of hepatitis B” (Janssen Sciences Ireland UC, priority 2013, dated 2018)

Tests used:
HBV [1] = experiment: Anti-HBV activity, HepG2.2.15 stable transfected cell line, HBV DNA from secreted virions by realtime PCR; format: cell-based; conditions: Hepatitis B virus, HepG2.2.15, 144 h, HepG2.2.15 cells, 6 days of treatment, HBV DNA from secreted virions; read-out: HepG2 2.15 EC50
HBV [2] = experiment: Anti-HBV activity, HepG2.117 inducibly HBV producing cell line (Tet-off), intracellular HBV DNA by realtime PCR; format: cell-based; conditions: Hepatitis B virus, HepG2.117, 72 h, HepG2.117 cells, 3 days of treatment, intracellular HBV DNA; read-out: HepG2 117 EC50
[3] = Cytotoxicity in HepG2 cells, Resazurin viability assay; conditions: human, HepG2 cells, HepG2 4 days CC50 (μM), incubated for 4 days, Resazurin assay

SMILES	EC50 (HBV [1]) [nM]	EC50 (HBV [2]) [nM]	CC50 at 4 days [3] [µM]
C[C@H](NS(=O)(=O)c1cc(C(=O)Nc2cc(F)c(F)c(Br)c2)n(C)c1)C(F)(F)F [Compound 100, N-(3-Bromo-4,5-difluorophenyl)-1-methyl-4-{[(1S)-2,2,2-trifluoro-1-methylethyl]sulfamoyl}-1H-pyrrole-2-carboxamide]	60	50	12.2
Cn1cc(S(=O)(=O)NC(C)(C)CF)cc1C(=O)Nc1ccc(F)c(C#N)c1 [Compound 249, N-(3-cyano-4-fluoro-phenyl)-4-[(2-fluoro-1,1-dimethyl-ethyl)sulfamoyl]-1-methyl-1H-pyrrole-2-carboxamide]	70	180	1.7
Cn1cc(S(=O)(=O)NC(C)(C)C)cc1C(=O)Nc1ccc(F)c(C#N)c1 [Compound 190, 4-(tert-Butylsulfamoyl)-N-(3-cyano-4-fluorophenyl)-1-methyl-1H-pyrrole-2-carboxamide]	90	100	> 25
Cc1cc(NC(=O)c2cc(S(=O)(=O)N[C@H]3C[C@@H](O)C3)cn2C)ccc1F [Compound 15, N-(4-fluoro-3-methyl-phenyl)-4-[(3-hydroxycyclobutyl)sulfamoyl]-1-methyl-pyrrole-2-carboxamide]	160	130	> 25
Cn1cc(S(=O)(=O)NC(C)(C)C)cc1C(=O)Nc1ccc(F)c(Cl)c1 [Compound 195, 4-(tert-Butylsulfamoyl)-N-(3-chloro-4-fluorophenyl)-1-methyl-1H-pyrrole-2-carboxamide]	40	40	> 25
Cc1c(S(=O)(=O)N[C@H](C)C(F)(F)F)cc(C(=O)Nc2ccc(F)c(Cl)c2F)n1C [Compound 143, N-(3-Chloro-2,4-difluorophenyl)-1,5-dimethyl-4-{[(1R)-2,2,2-trifluoro-1-methylethyl]sulfamoyl}-1H-pyrrole-2-carboxamide]	50	150	> 25
C[C@@H](NS(=O)(=O)c1cn(C)c(C(=O)Nc2ccc(F)c(C(F)(F)F)c2)c1Cl)C(F)(F)F [Compound 274, 3-chloro-N-[4-fluoro-3-(trifluoromethyl)phenyl]-1-methyl-4-[[(1R)-2,2,2-trifluoro-1-methyl-ethyl]sulfamoyl]pyrrole-2-carboxamide]	20	40	19.4
Cc1cc(NC(=O)c2c(F)c(S(=O)(=O)NC3(C)COC3)cn2C)ccc1F [Compound 94, 3-Fluoro-N-(4-fluoro-3-methylphenyl)-1-methyl-4-[(3-methyloxetan-3-yl)sulfamoyl]-1H-pyrrole-2-carboxamide]	9	10	> 25
CC(C)NS(=O)(=O)c1cc(C(=O)Nc2ccc(F)c(Cl)c2)n(C)c1 [Compound 174, N-(3-Chloro-4-fluorophenyl)-1-methyl-4-[(1-methylethyl)sulfamoyl]-1H-pyrrole-2-carboxamide]	80	40	> 25
CC[C@@H](NS(=O)(=O)c1cc(C(=O)Nc2ccc(F)c(C#N)c2)n(C)c1)C(F)(F)F [Compound 240, N-(3-Cyano-4-fluorophenyl)-1-methyl-4-{[(1R)-1-(trifluoromethyl)-propyl]sulfamoyl}-1H-pyrrole-2-carboxamide]	20	50	> 25
Cn1cc(S(=O)(=O)NCC(F)(F)F)cc1C(=O)Nc1ccc(F)c(Br)c1 [Compound 135, N-(3-Bromo-4-fluorophenyl)-1-methyl-4-[(2,2,2-trifluoroethyl)sulfamoyl]-1H-pyrrole-2-carboxamide]	20	260	> 25
C[C@@H](NS(=O)(=O)c1cn(C)c(C(=O)Nc2ccc(F)c(C#N)c2)c1F)C(F)(F)F [Compound 170, N-(3-Cyano-4-fluorophenyl)-3-fluoro-1-methyl-4-{[(1R)-2,2,2-trifluoro-1-methylethyl]sulfamoyl}-1H-pyrrole-2-carboxamide]	< 5	5	> 100
CC[C@H](NS(=O)(=O)c1cn(C)c(C(=O)Nc2ccc(F)c(C#N)c2)c1Cl)C(F)(F)F [Compound 289, 3-chloro-N-(3-cyano-4-fluoro-phenyl)-1-methyl-4-[[(15)-1-(trifluoro-methyl)propyl]sulfamoyl]pyrrole-2-carboxamide]	40	50	> 25
Cc1cc(NC(=O)c2cc(S(=O)(=O)NC(C)(C)C)cn2C)ccc1F [Compound 16, 4-(tert-butylsulfamoyl)-N-(4-fluoro-3-methyl-phenyl)-1-methyl-pyrrole-2-carboxamide]	60	30	> 25
Cn1cc(S(=O)(=O)NC2(C)COC2)cc1C(=O)Nc1cccc(C#N)c1 [Compound 55, N-(3-cyanophenyl)-1-methyl-4-[(3-methyloxetan-3-yl)sulfamoyl]pyrrole-2-carboxamide]	210	110	> 25
Cc1cc(NC(=O)c2cc(S(=O)(=O)NC3(CC#N)COC3)cn2C)ccc1F [Compound 17, 4-[[3-(cyanomethyl)oxetan-3-yl]sulfamoyl]-N-(4-fluoro-3-methyl-phenyl)-1-methyl-pyrrole-2-carboxamide]	30	20	> 25
C[C@@H](NS(=O)(=O)c1cn(C)c(C(=O)Nc2ccc(F)c(Cl)c2Cl)c1Cl)C(F)(F)F [Compound 277, 3-chloro-N-(2,3-dichloro-4-fluoro-phenyl)-1-methyl-4-[[(1R)-2,2,2-trifluoro-1-methyl-ethyl]sulfamoyl]pyrrole-2-carboxamide]	30	40	> 25
Cn1cc(S(=O)(=O)NC(C)(C)C)c(F)c1C(=O)Nc1ccc(F)c(F)c1F [Compound 213, 4-(tert-Butylsulfamoyl)-3-fluoro-1-methyl-N-(2,3,4-trifluorophenyl)-1H-pyrrole-2-carboxamide]	210	310	> 25
C[C@H](NS(=O)(=O)c1cn(C)c(C(=O)Nc2ccc(F)c(C#N)c2)c1Cl)C(F)(F)F [Compound 225, 3-Chloro-N-(3-cyano-4-fluorophenyl)-1-methyl-4-{[(1S)-2,2,2-trifluoro-1-methylethyl]sulfamoyl}-1H-pyrrole-2-carboxamide]	70	70	> 25
Cn1cc(S(=O)(=O)NC2(C)CCOC2)cc1C(=O)Nc1ccc(F)c(F)c1 (stereo not drawn) [Compound 91, N-(3,4-Difluorophenyl)-1-methyl-4-[(3-methyltetrahydrofuran-3-yl)sulfamoyl]-1H-pyrrole-2-carboxamide]	60	40	> 25
C[C@@H](NS(=O)(=O)c1cc(C(=O)Nc2ccc(F)c(C#N)c2)n(C)c1)C(F)(F)F [Compound 157, N-(3-cyano-4-fluoro-phenyl)-1-methyl-4-[[(1R)-2,2,2-trifluoro-1-methylethyl]sulfamoyl]pyrrole-2-carboxamide]	80	50	> 25
C[C@@H](NS(=O)(=O)c1cc(C(=O)Nc2ccc(F)c(C#N)c2)n(C)c1)C(C)(F)F [Compound 298, N-(3-cyano-4-fluoro-phenyl)-4-[[(1R)-2,2-difluoro-1-methyl-propyl]-sulfamoyl]-1-methyl-pyrrole-2-carboxamide]	20	50	23.7
C[C@H](NS(=O)(=O)c1cc(C(=O)Nc2cccc(C#N)c2)n(C)c1)C(F)(F)F [Compound 197, N-(3-Cyanophenyl)-1-methyl-4-{[(1S)-2,2,2-trifluoro-1-methylethyl]-sulfamoyl}-1H-pyrrole-2-carboxamide]	120	90	> 25
Cc1c(F)ccc(NC(=O)c2cc(S(=O)(=O)NC3(C)COC3)cn2C)c1F [Compound 85, N-(2,4-Difluoro-3-methylphenyl)-1-methyl-4-[(3-methyloxetan-3-yl)sulfamoyl]-1H-pyrrole-2-carboxamide]	30	50	> 25
Cc1cc(NC(=O)c2cc(S(=O)(=O)NC3(CO)CC3)cn2C)ccc1F [Compound 12, N-(4-fluoro-3-methyl-phenyl)-4-[[1-(hydroxymethyl)cyclopropyl]sulfamoyl]-1-methyl-pyrrole-2-carboxamide]	120	60	> 25
Cn1cc(S(=O)(=O)NC(C)(C)C)c(Cl)c1C(=O)Nc1ccc(F)c(F)c1 [Compound 223, 4-(tert-Butylsulfamoyl)-3-chloro-N-(3,4-difluorophenyl)-1-methyl-1H-pyrrole-2-carboxamide]	120	90	> 25
CC[C@H](NS(=O)(=O)c1cc(C(=O)Nc2ccc(F)c(Cl)c2F)n(C)c1)C(F)(F)F [Compound 262, N-(3-chloro-2,4-difluoro-phenyl)-1-methyl-4-{[(1S)-1-(trifluoro-methyl)propyl]sulfamoyl}-1H-pyrrole-2-carboxamide]	20	20	> 25
CC(C)NS(=O)(=O)c1cc(C(=O)Nc2cccc(C#N)c2)n(C)c1 [Compound 177, N-(3-Cyanophenyl)-1-methyl-4-[(1-methylethyl)sulfamoyl]-1H-pyrrole-2-carboxamide]	330	260	> 25
Cn1cc(S(=O)(=O)NCC(F)F)cc1C(=O)Nc1ccc(F)c(Br)c1 [Compound 127, N-(3-Bromo-4-fluorophenyl)-4-[(2,2-difluoroethyl)sulfamoyl]-1-methyl-1H-pyrrole-2-carboxamide]	50	190	> 25
